According to patent US4313944A, “Cycloheptindoles, compositions and use” (Roussel Uclaf, priority 1980, dated 1982):
Structures can show the parent of a compound that is named as a salt.

Experiments:
[1] = test system: nigrostriatal dopaminergic bundle (6-hydroxydopamine unilateral lesion); assay: Rotation behavior after unilateral injury of nigrostriatal bundle; assay type: in vivo, male rats; settings: rats, intraperitoneal
Description: A. Rotation behavior after unilateral injury of nigrostriatal bundle
The unilateral lesion was effected with male rats weighing about 220 g by unilateral injection into nigrostriatal dopaminergic bundle of 8 μg of 6-hydroxydopamine in a solution of 2 μg per μl by the method of Ungerstedt [Acta. Physiol. Scand., Vol. 82 (1971), supp. 367, p. 69-93]. In the animals, the direct dopaminergic agonists such as apomorphine administered generally induces a rotating behavior in the contralateral direction to the injured side. The test compounds were administered more than 5 weeks after the lesion and the rats were placed in an automatic rotometer which determine the number of rotations effected by each animal in 2 directions.
The products of Examples 1, 2 and 3 were intraperitoneally administered and the product of Example 1 provoked 337±99 contralateral rotations at a dose of 5 mg/kg, product of Example 2 provoked 364±50 contralateral rotations at a dose of 1 mg/kg and the product of Example 3 provoked 657±205 contralateral rotations at a dose of 0.1 mg/kg.

dopaminergic receptors = target: T1, dopaminergic receptors (Rattus norvegicus, UniProt P61169); assay: Affinity for dopaminergic receptors (inhibition of spiroperidol 3H fixation); assay type: binding; settings: for fixation to dopaminergic receptors (in words): results of Table I; for IC50: spiroperidol 3H, rat striated bodies, 37° C., pH 7.3, 20 minutes, read-out: 50% inhibiting concentration
T1 construct: from tissue; host or cells: rat striatum (striated bodies), crude membrane preparation
T1 sequence (P61169 whole entry): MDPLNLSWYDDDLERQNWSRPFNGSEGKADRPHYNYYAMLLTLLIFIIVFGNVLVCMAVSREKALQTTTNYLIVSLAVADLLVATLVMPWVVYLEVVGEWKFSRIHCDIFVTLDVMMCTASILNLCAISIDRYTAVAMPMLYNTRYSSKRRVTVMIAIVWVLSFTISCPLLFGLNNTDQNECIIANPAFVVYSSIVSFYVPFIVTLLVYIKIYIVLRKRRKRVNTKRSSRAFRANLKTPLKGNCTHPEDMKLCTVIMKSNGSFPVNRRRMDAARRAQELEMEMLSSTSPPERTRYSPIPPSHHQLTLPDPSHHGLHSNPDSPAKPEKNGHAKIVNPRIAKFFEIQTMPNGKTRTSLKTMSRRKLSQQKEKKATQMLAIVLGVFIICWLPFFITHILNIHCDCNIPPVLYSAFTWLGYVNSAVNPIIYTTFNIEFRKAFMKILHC
Description: B. Affinity for dopaminergic receptors
The striated bodies taken from the brains of 6 male rats weighing about 150 g were homogenized at one 20th (weight/volume) in 0.32 M sucrose and the homogenized mixture was centrifuged at 1000 g for 10 minutes at 0° C., the surnageant was centrifuged at 30,000 g for 15 minutes at 4° C. The culot was taken up in 25 ml of buffered Tris HCl 50 mM with a pH of 7.7 and the mixture was centrifuged at 30,000 g for 15 minutes at 4° C. The new culot was taken up in 50 ml of buffered Krebs Tris HCl with a pH of 7.3 and the suspension was preincubated at 37° C. for 10 minutes and was then incubated for 20 minutes in a water bath at 37° C. in the presence of spiroperidol 3H, alone or with an excess of haloperidol or with increasing units of the product being tested. The incubated suspensions were filtered with Whatman GF/C and the filters were washed 3 times with 5 ml of buffered Tris HCl 50 mM. The radioactivity of the filters was measured by liquid scintillation and the curve of percentage of fixation of spiroperidol 3H as a function of concentration of test product was determined.

male mice = assay: Hypobare anoxia study; assay type: in vivo; settings: oral, 30 minutes before test, 90 mm Hg
Description: Groups of 10 male mice weighing about 20 to 22 g were not fed for 5 hours and were placed in a hermetically sealed enclosure with a pressure of 90 mm Hg maintained by a pump to determine the time of their survival. […] The results of Table II show the increase of survival time expressed as a percentage of control animals.

mice = assay: Acute toxicity; assay type: in vivo; settings: oral, maximum dose which did not cause mortality
[2] = test system: ulcers in the stomachs of rats; assay: Antiulcerous activity (Shay ulcers by ligature of pylore); assay type: in vivo; settings: oral, about 16 hours after treatment
Excerpt: The technique used is described by Shay et al [Gastroenterology, Vol. 5 (1945), p. 43]. Ulcers were induced in the stomachs of rats by ligature of pylore. The animals were anesthesized with ether and a longitudinal incision of about 1 cm was made beneath the sternum, the glandular part of the stomach and the duodenum were taken out and a ligature was placed a few mm below the pylore. The muscular surface was left as it was and the skin was sutured by 2 clamps.
The animals received orally immediately after a dispersive or the test product in a volume of 0.5 ml/100 g and were kept without food or water until they were killed by carotidinal bleeding which was about 16 hours after treatment. Before removal of the stomach, a ligature was placed above the […]. The gastric liquid was collected to measure the pH and the stomach was then opened by a large curve, was rinsed with physiological serum and was spead out on millimetric paper for examination with a binocular lens. The gravity of the lesions was macroscopically evaluated on a scale of 0 to 4 for each stomach to determine for each group of rats the average intensity of ulcerations.

Compound	fixation to dopaminergic receptors (in words) (dopaminergic receptors)	IC50 (dopaminergic receptors) [nM]	DL0 (mice) [mg/kg]	% of increase of survival time (male mice; dose 5 mg/kg) [%]	% of increase of survival time (male mice; dose 25 mg/kg) [%]	also measured
c1cc2c3c(c[nH]c3c1)CC[C@H]1NCCO[C@H]21 (relative stereo) [Example 1, (7a R,S-trans)-4,6,7,7a,8,9,10,11a-octahydro-[1,4]-oxazino [2',3'-4,5]-cyclohept[1,2,3-c,d]-indole hydrochloride]	do fix dopaminergic receptors	10000	200			contralateral rotations ([1]; 5 mg/kg): 337±99 contralateral rotations; % of increase of survival time (male mice; dose 2 mg/kg): 14%; % of increase of survival time (male mice; dose 10 mg/kg): 51%; % of increase of survival time (male mice; dose 50 mg/kg): 145%
CN1CCO[C@@H]2c3cccc4[nH]cc(c34)CC[C@H]21 (relative stereo) [Example 2, (7a-R,S-trans) 8-methyl-4,6,7,7a,8,9,10,11a-octahydro-[1,4]-oxazino-[2',3'-4,5]cyclohept[1,2,3-c,d]indole hydrochloride]	do fix dopaminergic receptors	950	100	30	64	contralateral rotations ([1]; 1 mg/kg): 364±50 contralateral rotations
CCCN1CCO[C@@H]2c3cccc4[nH]cc(c34)CC[C@H]21 (relative stereo) [Example 3, (7a-R,S-trans)-4,6,7,7a,8,9,10,11a-octahydro-8-propyl-[1,4]-oxazino-[2',3'-4,5]cyclohept[1,2,3-c,d]indole hydrochloride]	do fix dopaminergic receptors	270	100	102	86	contralateral rotations ([1]; 0.1 mg/kg): 657±205 contralateral rotations; % of increase of survival time (male mice; dose 1 mg/kg): 3%; % protection against ulceration ([2]; dose 5 mg/kg): 51%; % protection against ulceration ([2]; dose 25 mg/kg): 73%
CCCN1CCO[C@@H]2c3cccc4[nH]c(Br)c(c34)CC[C@H]21 (relative stereo) [Example 4, (7a-R,S-trans) 5-bromo-4,6,7,7a,8,9,10,11a-octahydro-8-propyl-[1,4]-oxazino-[2',3'-4,5]cyclohept[1,2,3-c,d]indole hydrochloride]			> 1000			
CCCN1CCO[C@@H]2c3cccc4c3c(cn4C)CC[C@H]21 (relative stereo) [Example 5, (7a-R,S-trans) 4,6,7,7a,8,9,10,11a-octahydro-4-methyl-8-propyl-[1,4]-oxazino-[2',3'-4,5]cyclohept[1,2,3-c,d]indole hydrochloride]			200			
